Consider 31 compounds from patent US9023852B2, “1, 2, 4-thiadiazol-5-ylpiperazine derivatives useful in the treatment of neurodegenerative diseases” (Remynd NV, priority 2011, dated 2015).

This experiment concerns M17—3TAU(P301L) cells. In words: Neuroblastoma tauopathy model: inhibition of TAU-induced cytotoxicity (LDH). It counts as cell-based. To be noted: Homo sapiens, 168 h; inhibition of TAU-induced toxicity (LDH), 7 days differentiation with retinoic acid. The source says: A TAU expression plasmid was constructed by sub-cloning the cDNA encoding for human TAU-P301L protein, wherein proline at position 301 is substituted by a leucine residue, into mammalian expression vector pcDNA3.1 resulting in the plasmid pcDNA3.1-TAUP301L. Plasmids pcDNA3.1 and pcDNA3.1-TAU P301L were transfected into human neuroblastoma cells (BE-M17; ATCC No. CRL-2267™) using lipofectamine reagent and subsequently, independent clonal cell lines with the plasmids stably integrated into the genome were selected by antibiotic resistance selection (Geneticin (G418)), resulting in cell lines M17.pcDNA3 and M17—3TAUP301L. Expression of the TAUP301L gene in the M17—3TAUP301L cells was confirmed by Western blot analysis.
Differentiation of the cells with RA leads to phosphorylation and subsequent aggregation of TAU, inducing a tauopathy in these cells. Cytotoxicity of cells was measured by quantification of lactate dehydrogenase (LDH) levels. In dead cells LDH is leaked out of the cells into the medium due to a loss of plasma-membrane integrity.
Briefly, 3 days preceding the experiment pre-cultures of M17.pcDNA3 and M17—3TAU(P301L) cells were prepared, starting from a stock culture, at a density of 50.000-100.000 cells/cm2 in detection medium (Optimem Reduced Serum without phenol red (Gibco, Cat. 31985-047) supplemented with 1% fetal calf serum (FCS), 1 mM sodium pyruvate, 1× non-essential amino acids (NEAA), 500 μg/ml G418 and 0.5× antibiotic/antimycotic (ABAM)). At the day of the experiment these precultures were diluted to ˜0, 1.106 cells/ml in detection medium without FCS and 60 μL of this suspension is dispensed per well into a 96-well microtiter plate. After 3 hours of incubation at 37° C./5% CO2 an equal volume of detection medium containing 2.5 μM RA was added and subsequently incubated for 7 days at 37° C./5% CO2. After 7 days, LDH activity was determined using the Promega Cytotox 96 Non-Radioactive cytotoxicity assay (Cat. G1780), according the manufacturer's instructions. Cytotoxicity is measured as the ratio of LDH increase in the supernatant divided by the LDH increase in the total cell suspension (sum of the LDH measured in cells and supernatant).
The M17—3TAU(P301L) cell line makes it possible to assess the ability of novel compounds to inhibit TAU-induced cytotoxicity. […] Compounds were tested for their ability to hamper TAU-induced toxicity at different concentrations, ranging from low non-effective concentrations to high potent concentrations. Afterwards, the dose-dependent inhibition curve was used to calculate their EC50 (Table 1).
For `COc1ccc(CCN2CCN(c3nc(-c4cccc(Cl)c4)ns3)CC2)cc1` [Example 41, 1-[3-(3-Chloro-phenyl)-[1,2,4]thiadiazol-5-yl]-4-[2-(4-methoxy-phenyl)-ethyl]-piperazine], it took 0.7 nM to reach a half-maximal effect (EC50). With `COc1ccc(CCN2CCN(c3nc(-c4ccc(C(F)(F)F)nc4)ns3)CC2)cc1` [Example 42, 1-[2-(4-Methoxy-phenyl)-ethyl]-4-[3-(6-trifluoromethyl-pyridin-3-yl)-[1,2,4]thiadiazol-5-yl]-piperazine] the figure was 0.3 nM; with `COc1ccc(CCN2CCN(c3nc(-c4ccncc4)ns3)CC2)cc1` [Example 43, 1-[2-(4-Methoxy-phenyl)-ethyl]-4-(3-pyridin-4-yl-[1,2,4]thiadiazol-5-yl)-piperazine], 3.3 nM; with `COc1ccc(CCN2CCN(c3nc(-c4cccs4)ns3)CC2)cc1` [Example 44, 1-[2-(4-Methoxy-phenyl)-ethyl]-4-(3-thiophen-2-yl-[1,2,4]thiadiazol-5-yl)-piperazine], 2.3 nM. With `COc1ccc(CCN2CCN(c3nc(-c4ccccc4OC)ns3)CC2)cc1` [Example 45, 1-[2-(4-Methoxy-phenyl)-ethyl]-4-[3-(2-methoxy-phenyl)[1,2,4]thiadiazol-5-yl]-piperazine] the figure was 0.7 nM.

As for `COc1ccc(CCN2CCN(c3nc(-c4cc(Cl)cc(Cl)c4)ns3)CC2)cc1` [Example 46, 1-[3-(3,5-Dichloro-phenyl)-[1,2,4]thiadiazol-5-yl]-4-[2-(4-methoxy-phenyl)-ethyl]-piperazine], the EC50 (usually the midpoint of the concentration-response curve) was determined as 31.2 nM. Next, `COc1ccc(CCN2CCN(c3nc(-c4ccc(F)cc4)ns3)CC2)cc1` [Example 47, 1-[3-(4-Fluoro-phenyl)-[1,2,4]thiadiazol-5-yl]-4-[2-(4-methoxy-phenyl)-ethyl]-piperazine]: 0.4 nM.

With `COc1cccc(CCN2CCN(c3nc(-c4cccc(Cl)c4)ns3)CC2)c1` [Example 48, 1-[3-(3-Chloro-phenyl)-[1,2,4]thiadiazol-5-yl]-4-[2-(3-methoxy-phenyl)-ethyl]-piperazine], a half-maximal response (EC50) required 0.6 nM. The compound `COc1ccc(-c2nsc(N3CCN(CCc4cccc(OC)c4)CC3)n2)cc1` [Example 49, 1-[2-(3-Methoxy-phenyl)-ethyl]-4-[3-(4-methoxy-phenyl)-[1,2,4]thiadiazol-5-yl]-piperazine] showed an EC50 of 49.6 nM. This EC50 lies about 83-fold higher than the previous one. With `CCOc1ccc(CCN2CCN(c3nc(-c4ccc(Cl)cc4)ns3)CC2)cc1` [Example 50, 1-[3-(4-Chloro-phenyl)-[1,2,4]thiadiazol-5-yl]-4-[2-(4-ethoxy-phenyl)-ethyl]-piperazine] the figure was 169 nM; with `CC(C)Oc1cccc(CCN2CCN(c3nc(-c4ccc(Cl)cc4)ns3)CC2)c1` [Example 51, 1-[3-(4-Chloro-phenyl)-[1,2,4]thiadiazol-5-yl]-4-[2-(3-isopropoxy-phenyl)-ethyl]-piperazine], 152 nM; with `COc1ccc(CCCN2CCN(c3nc(-c4ccc(Cl)cc4)ns3)CC2)cc1` [Example 52, 1-[3-(4-Chloro-phenyl)-[1,2,4]thiadiazol-5-yl]-4-[3-(4-methoxy-phenyl)-propyl]-piperazine], 327 nM. With `COc1ccc(C(=O)CN2CCN(c3nc(-c4ccc(Cl)cc4)ns3)CC2)cc1` [Example 53, 2-{4-[3-(4-Chloro-phenyl)-[1,2,4]thiadiazol-5-yl]-piperazin-1-yl}-1-(4-methoxy-phenyl)-ethanone] the figure was 12.6 nM; with `COc1ccc(C(O)CN2CCN(c3nc(-c4ccc(Cl)cc4)ns3)CC2)cc1` (stereo not shown) [Example 54, 2-{4-[3-(4-Chloro-phenyl)-[1,2,4]thiadiazol-5-yl]-piperazin-1-yl}-1-(4-methoxy-phenyl)-ethanol], 16.1 nM. With `COc1cccc(CCN2CCN(c3nc(-c4ccc(Cl)cc4F)ns3)CC2)c1` [Example 55, 1-[3-(4-Chloro-2-fluoro-phenyl)-[1,2,4]thiadiazol-5-yl]-4-[2-(3-methoxy-phenyl)-ethyl]-piperazine] the figure was 4.2 nM.

`COc1ccc(CCN2CCN(c3nc(-c4ccc(Cl)cc4F)ns3)CC2)cc1` [Example 56, 1-[3-(4-Chloro-2-fluoro-phenyl)-[1,2,4]thiadiazol-5-yl]-4-[2-(4-methoxy-phenyl)-ethyl]-piperazine]: a half-maximal response (EC50) required 5.5 nM.

In the case of `COc1cccc(CCN2CCN(c3nc(-c4ccccc4Cl)ns3)CC2)c1` [Example 57, 1-[3-(2-Chloro-phenyl)-[1,2,4]thiadiazol-5-yl]-4-[2-(3-methoxy-phenyl)-ethyl]-piperazine], the EC50 is 14.5 nM. Next, `COc1ccc(CCN2CCN(c3nc(-c4ccccc4Cl)ns3)CC2)cc1` [Example 58, 1-[3-(2-Chloro-phenyl)-[1,2,4]thiadiazol-5-yl]-4-[2-(4-methoxy-phenyl)-ethyl]-piperazine]: 2.2 nM; `C=C(CN1CCN(c2nc(-c3ccc(Cl)cc3)ns2)CC1)c1ccc(OC)cc1` [Example 59, 1-[3-(4-Chloro-phenyl)-[1,2,4]thiadiazol-5-yl]-4-[2-(4-methoxy-phenyl)-allyl]-piperazine]: 75 nM. With `COc1cccc(C(=O)CN2CCN(c3nc(-c4ccc(Cl)cc4)ns3)CC2)c1` [Example 60, 2-{4-[3-(4-Chloro-phenyl)-[1,2,4]thiadiazol-5-yl]-piperazin-1-yl}-1-(3-methoxy-phenyl)-ethanone] the figure was 41.2 nM; with `COc1cccc(C(O)CN2CCN(c3nc(-c4ccc(Cl)cc4)ns3)CC2)c1` (stereo not shown) [Example 61, 2-{4-[3-(4-Chloro-phenyl)-[1,2,4]thiadiazol-5-yl]-piperazin-1-yl}-1-(3-methoxy-phenyl)-ethanol], 44.4 nM; with `O=C(CN1CCN(c2nc(-c3ccc(Cl)cc3)ns2)CC1)c1cccc(F)c1` [Example 62, 2-{4-[3-(4-Chloro-phenyl)-[1,2,4]thiadiazol-5-yl]-piperazin-1-yl}-1-(3-fluoro-phenyl)-ethanone], 68.7 nM.

`OC(CN1CCN(c2nc(-c3ccc(Cl)cc3)ns2)CC1)c1cccc(F)c1` (stereo not shown) [Example 63, 2-{4-[3-(4-Chloro-phenyl)-[1,2,4]thiadiazol-5-yl]-piperazin-1-yl}-1-(3-fluoro-phenyl)-ethanol]: the concentration for a half-maximal effect (EC50) turned out to be 7.4 nM. This EC50 is about 9.3-fold lower than that of the compound before. `COc1ccc(C(F)CN2CCN(c3nc(-c4ccc(Cl)cc4)ns3)CC2)cc1` (stereo not shown) [Example 64, 1-[3-(4-Chloro-phenyl)-[1,2,4]thiadiazol-5-yl]-4-[2-fluoro-2-(4-methoxy-phenyl)-ethyl]-piperazine] registered an EC50 of 9.8 nM. `COc1cccc(C(F)CN2CCN(c3nc(-c4ccc(Cl)cc4)ns3)CC2)c1` (stereo not shown) [Example 65, 1-[3-(4-Chloro-phenyl)-[1,2,4]thiadiazol-5-yl]-4-[2-fluoro-2-(3-methoxy-phenyl)-ethyl]-piperazine] had an EC50 of 59.9 nM.

In turn, `COc1cccc(CCN2CCN(c3nc(-c4ccc(F)cc4OC)ns3)CC2)c1` [Example 66, 1-[3-(4-Fluoro-2-methoxy-phenyl)-[1,2,4]thiadiazol-5-yl]-4-[2-(3-methoxy-phenyl)-ethyl]-piperazine] registered an EC50 of 1.5 nM. Next, `COc1ccc(CCN2CCN(c3nc(-c4ccc(F)cc4OC)ns3)CC2)cc1` [Example 67, 1-[3-(4-Fluoro-2-methoxy-phenyl)-[1,2,4]thiadiazol-5-yl]-4-[2-(4-methoxy-phenyl)-ethyl]-piperazine]: 1 nM.

As for `Clc1ccc(-c2nsc(N3CCN(CC4(c5ccc(Cl)cc5)CC4)CC3)n2)cc1` [Example 68, 1-[1-(4-Chloro-phenyl)-cyclopropylmethyl]-4-[3-(4-chloro-phenyl)-[1,2,4]thiadiazol-5-yl]-piperazine], the EC50 came to 899 nM. This EC50 is about 900-fold higher than that of the compound before.

Regarding `FC(F)Oc1cccc(CCN2CCN(c3nc(-c4ccc(Cl)cc4)ns3)CC2)c1` [Example 69, 1-[3-(4-Chloro-phenyl)-[1,2,4]thiadiazol-5-yl]-4-[2-(3-difluoromethoxy-phenyl)-ethyl]-piperazine], the EC50 stood at 43.7 nM. `FC(F)Oc1ccc(CCN2CCN(c3nc(-c4ccc(Cl)cc4)ns3)CC2)cc1` [Example 70, 1-[3-(4-Chloro-phenyl)-[1,2,4]thiadiazol-5-yl]-4-[2-(4-difluoromethoxy-phenyl)-ethyl]-piperazine] returned an EC50 of 194 nM. Against the preceding compound, the EC50 is about 4.4-fold higher. Next, `CC(C)Oc1ccc(CCN2CCN(c3nc(-c4ccc(Cl)cc4)ns3)CC2)cc1` [Example 71, 1-[3-(4-Chloro-phenyl)-[1,2,4]thiadiazol-5-yl]-4-[2-(4-isopropoxy-phenyl)-ethyl]-piperazine]: 429 nM.
